Where a SMILES comes first, the peptide text is derived from it. Where no end group is shown, it is not given here.

The values that follow come from patent publication US8673849B2, “Lactadherin-derived peptides as antiviral agents” (priority 2010, dated 2014).

For data set [1], the system named is human rotavirus strain Wa. The data set is classed as cell-based. The settings on record: for anti-rotavirus activity (in words): statement on Table 6. The protocol:
To cultivate the rotavirus, the cell line MA-104 (monkey foetal kidney cells), obtained from the Cell Substrata Centre of the Experimental Animal Disease Institute, Brescia, Italy, was used. This cell line is cultured as a monolayer in EAGLE minimum essential medium (MEM) containing 5% heat-inactivated (56° C. for 30 minutes) bovine foetal serum (Sigma) and is maintained at 37° C. at 5% CO2.
For the in vitro infection assay, the cell line MA-104 and the human rotavirus strain Wa (TC adapted), obtained from the American Type Culture Collection (ATCC VR-2018) and propagated in MA-104 cells, were used.
To set up the assay, cells were seeded in 96-well plates and, once 80% confluence was achieved, were pre-treated for 1 hour with increasing concentrations of RGD- and/or DGE-containing peptides or their mutated counterparts and incubated at 37° C. The peptides containing the RGD or the DGE motif were used either alone or in combination. Cells were then washed with medium and infected with the pre-activated virus (5 μg/ml tripsin for 30 minutes at 37° C.) in the presence of the peptides. After a 1 hour incubation cells were washed with medium and incubated in medium containing 0.5 μg/ml tripsin and the peptides at 37° C. for 20 hours. The infected cells were visualised through an immunoperoxidase assay, using murine monoclonal antibodies specific for the capsidic protein VP6 of the rotavirus (Abcam) and the kit “UltraTech HRP Streptavidin-Biotin detection system” (Beckman Coulter). The infected cells were counted by observation under the optical microscope and the percentage of infection calculated by comparison of treated with non-treated cells.

In data set [2] the test system is simian rotavirus strain SA11. The settings on record: MA104 cells, dose-dependent; Graham et al.; cited from earlier work.
The target in data set [3] is integrin proteins on the cell surface.
For data set [4] the target is unchanged. The source holds these as a separate data set.
For data set [5], the target named is T1, modified porcine trypsin (Sus scrofa, UniProt P00761).
T1 construct: purchased Promega
T1 sequence (P00761 9-231): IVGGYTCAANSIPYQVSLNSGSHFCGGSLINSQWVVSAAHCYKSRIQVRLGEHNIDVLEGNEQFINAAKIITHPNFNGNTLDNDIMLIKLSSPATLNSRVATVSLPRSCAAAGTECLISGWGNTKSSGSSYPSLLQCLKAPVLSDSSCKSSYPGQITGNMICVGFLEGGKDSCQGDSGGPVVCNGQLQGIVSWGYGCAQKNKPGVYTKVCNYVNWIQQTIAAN
It is filed as in vitro ADME. The protocol:
The peptide SEQ ID NO: 1 was dissolved in ultra pure H2O to obtain a final concentration of 10 mg/ml. Dilutions from 1:10 to 1:10,000 were obtained. All concentrations were tested by MALDI-TOF analyses. 0.5 μl of samples from dilutions 1:10, 1:100, 1:1,000, 1:10,000 were spotted onto a MALDI target plate and left to dry at RT. 0.5 μl of α-cyano-4-hydroxy-cinnamic acid in 30% acetonitrile, 0.1% TFA (HCCA matrix solution) were added to each sample and left to dry under vacuum. Spectra were obtained using a Bruker Ultraflex II MALDI-TOF/TOF mass spectrometer (Bruker Daltonics) in reflectron and positive ion mode. External calibration was performed using “Peptide calibration standard” from Bruker Daltonics.
To evaluate the digestibility of the SEQ ID NO: 1 peptide with trypsin, […] of a 0.2 μg/μl solution (25 mM NH4HCO3) of modified porcine trypsin (Promega) were added to 150 μl of the 10 mg/ml peptide solution ((25 mM NH4HCO3) enzyme to protein ratio 1:100). The sample was incubated at 37° C. and 0.5 μl were collected at different time of digestion: 5′, 15′, 30′, 60′ 90′ 120′. Each samples was spotted on MALDI target and spectra were collected as already described in Example 4a. In FIG. 5 the time course experiment evaluated by MALDI TOF analyses is shown.

Data set [6] has as its target integrin proteins on the cell surface. This is another data set of the same source.
The target is the same in data set [7]. The source holds these as a separate data set.
The subject of data set [8] is rotavirus. The settings on record: purified lactadherin; Kvistgaard et al., 2004; cited from earlier work.
In data set [9] the target is integrin proteins on the cell surface. The source holds these as a separate data set.

What is called IC50 is the point on the concentration scale where inhibition reaches its midpoint. For the molecule `C[C@H](NC(=O)[C@H](CCC(=O)O)NC(=O)CNC(=O)[C@@H](N)CC(=O)O)C(=O)O` [DGEA, D-G-E-A, reference compound] (H-DGEA-OH; N-terminus and C-terminus assumed), in data set [1], the IC50 was 311 µM and the “IC50 (μg/ml)” value was 121.4 µg/mL. Moreover, the “inhibition of rotavirus binding to and infection of cells (in words)” value in data set [2] is “inhibit”.
In data set [3], Control peptide D-G-E-A (Graham et al.) yielded an IC50 (µM), inhibition of human rotavirus Wa infection of MA-104 cells of 311 µM and an IC50 (µg/ml), inhibition of human rotavirus Wa infection of MA-104 cells of 121 µg/mL.
In data set [4], “Dendrimeric peptide of formula (VII): [[(HRGDVFT)2-Lys][(NDGECHV)2-Lys]]-Lys-β-Ala-NH2” yielded an IC50, inhibition of rotavirus infection, infected cells counted by immunoperoxidase of 3.6 µM.
As for “EVRGDVFP [Hu-RGD, E-V-R-G-D-V-F-P, reference compound]”, in data set [1], the IC50 came to 104 µM and the “IC50 (μg/ml)” value amounted to 95.3 µg/mL.
For the molecule GPRP, the “inhibition of rotavirus binding to and infection of cells (in words)” value in data set [2] is reported as “inhibit”.
For NNDGECHVIDDSHRGDVFTQ [SEQ ID NO: 7], in [1], the half-maximal inhibitory concentration (IC50) is 13.5 µM, the “IC50 (μg/ml)” value was 30.51 µg/mL and the “anti-rotavirus activity (in words)” value is given as “show antiviral activity”.
For the molecule “QNAGECHV [pAGE, Q-N-A-G-E-C-H-V, reference compound]”, in [1], the IC50 came to 257 µM and the “IC50 (μg/ml)” value came out at 219.6 µg/mL.
For the molecule QNAGECHVIDDSHRGEVFTQ [SEQ ID NO: 10], in [1], the IC50 was above 220 µM, the “IC50 (μg/ml)” value is above 500 µg/mL and the “anti-rotavirus activity (in words)” value is “completely lost any anti-rotavirus activity”.
Take “QNDGECHV [SEQ ID NO: 3, Q-N-D-G-E-C-H-V]”: in [1], the concentration for half-maximal inhibition (IC50) amounted to 17.3 µM and the “IC50 (μg/ml)” value stood at 15.6 µg/mL.
In the case of QNDGECHVIDDSDRGDVFTQ [SEQ ID NO: 11], in [1], the IC50 is 10.5 µM, the “IC50 (μg/ml)” value was determined as 23.90 µg/mL and the “anti-rotavirus activity (in words)” value was “maintains its anti-rotavirus activity”.
On to QNDGECHVIDDSHRGDVFQT [SEQ ID NO: 9], for which, in data set [1], the IC50 is 4.17 µM, the “IC50 (μg/ml)” value was 9.469 µg/mL and the “anti-rotavirus activity (in words)” value was “show antiviral activity”.
With QNDGECHVIDDSHRGDVFSQ [SEQ ID NO: 8], in data set [1], the IC50 was 6.35 µM, the “IC50 (μg/ml)” value was 14.43 µg/mL and the “anti-rotavirus activity (in words)” value is reported as “show antiviral activity”.
Consider “QNDGECHVIDDSHRGDVFTQ [SEQ ID NO: 1, QNDGECHVIDDSHRGDVFTQ]”, for which, in [1], the IC50 was found to be 1.72 µM and the “IC50 (μg/ml)” value stood at 3.9 µg/mL. Moreover, the “integrity of the peptide on trypsin digestion” value in data set [5] was “didn't affect the integrity”.
“SHRGDVFI [Bo-RGD, S-H-R-G-D-V-F-I, reference compound]”: in data set [1], the half-maximal inhibitory concentration (IC50) worked out at 395 µM and the “IC50 (μg/ml)” value was 367.1 µg/mL.
Regarding “SHRGDVFT [SEQ ID NO: 5, S-H-R-G-D-V-F-T]”, in data set [1], the IC50 is 111 µM and the “IC50 (μg/ml)” value turned out to be 101.5 µg/mL.
On to “SHRGEVFT [pRGE, S-H-R-G-E-V-F-T, reference compound]”, for which, in data set [1], the IC50 stood at 600 µM and the “IC50 (μg/ml)” value turned out to be 558.5 µg/mL.
In data set [3], “pAGE: Q-N-A-G-E-C-H-V (DGE -> AGE mutation) (peptide)” yielded an IC50 (µM), inhibition of human rotavirus Wa infection of MA-104 cells of 257 µM and an IC50 (µg/ml), inhibition of human rotavirus Wa infection of MA-104 cells of 220 µg/mL.
For “pRGE: S-H-R-G-E-V-F-T (RGD -> RGE mutation) (peptide)” the same measures were 600 µM and 558 µg/mL.
Take SHRGDVFT (not fully specified) [peptidic compound of SEQ ID NO: 5 (S-H-R-G-D-V-F-T)]: in data set [3], the IC50 (µM), inhibition of human rotavirus Wa infection of MA-104 cells, infected cells counted by immunoperoxidase turned out to be 111 µM and the IC50 (µg/ml), inhibition of human rotavirus Wa infection of MA-104 cells came to 102 µg/mL. Further, in data set [6], the % of inhibition of rotavirus infection at 100 µg/ml (93.3 µM), one representative experiment (% of inhibition) came to 46.9.
In data set [3], QNDGECHV (not fully specified) [peptidic compound of SEQ ID NO: 3 (Q-N-D-G-E-C-H-V)] yielded an IC50 (µM), inhibition of human rotavirus Wa infection of MA-104 cells of 17.3 µM and an IC50 (µg/ml), inhibition of human rotavirus Wa infection of MA-104 cells of 15.6 µg/mL. Moreover, in [7], the % of inhibition of rotavirus infection at 100 µg/ml (96.6 µM), one representative experiment (% of inhibition) was determined as 52.7.
SHRGDVFI (not fully specified) [Bo-RGD: S-H-R-G-D-V-F-I]: in data set [3], the IC50 (µM), inhibition of human rotavirus Wa infection of MA-104 cells is 395 µM and the IC50 (µg/ml), inhibition of human rotavirus Wa infection of MA-104 cells amounted to 367 µg/mL.

B1: bovine lactadherin: bovine lactadherin, glycoprotein of milk fat globule membranes, 427 amino acid residues (protein, UniProt Q95114 19-427, looked up)
Lactadherin: ASGDFCDSSLCLHGGTCLLNEDRTPPFYCLCPEGFTGLLCNETEHGPCFPNPCHNDAECQVTDDSHRGDVFIQYICKCPLGYVGIHCETTCTSPLGMQTGAIADSQISASSMHLGFMGLQRWAPELARLHQTGIVNAWTSGNYDKNPWIQVNLMRKMWVTGVVTQGASRAGSAEYLKTFKVAYSTDGRQFQFIQVAGRSGDKIFIGNVNNSGLKINLFDTPLETQYVRLVPIICHRGCTLRFELLGCELNGCTEPLGLKDNTIPNKQITASSYYKTWGLSAFSWFPYYARLDNQGKFNAWTAQTNSASEWLQIDLGSQKRVTGIITQGARDFGHIQYVAAYRVAYGDDGVTWTEYKDPGASESKIFPGNMDNNSHKKNIFETPFQARFVRIQPVAWHNRITLRVELLGC
With B1, the “activity against rotavirus infection (in words)” value in data set [8] is “does not possess this activity”.
For EVRGDVFP (not fully specified) [Hu-RGD: E-V-R-G-D-V-F-P], in data set [3], the IC50 (µM), inhibition of human rotavirus Wa infection of MA-104 cells was 104 µM and the IC50 (µg/ml), inhibition of human rotavirus Wa infection of MA-104 cells was determined as 95.3 µg/mL.

B2: human lactadherin: purified human lactadherin, glycoprotein of milk fat globule membranes, 387 amino acids (protein, UniProt Q08431 24-387, looked up)
Lactadherin: LDICSKNPCHNGGLCEEISQEVRGDVFPSYTCTCLKGYAGNHCETKCVEPLGLENGNIANSQIAASSVRVTFLGLQHWVPELARLNRAGMVNAWTPSSNDDNPWIQVNLLRRMWVTGVVTQGASRLASHEYLKAFKVAYSLNGHEFDFIHDVNKKHKEFVGNWNKNAVHVNLFETPVEAQYVRLYPTSCHTACTLRFELLGCELNGCANPLGLKNNSIPDKQITASSSYKTWGLHLFSWNPSYARLDKQGNFNAWVAGSYGNDQWLQVDLGSSKEVTGIITQGARNFGSVQFVASYKVAYSNDSANWTEYQDPRTGSSKIFPGNWDNHSHKKNLFETPILARYVRILPVAWHNRIALRLELLGC
Regarding B2, the “activity against rotavirus infection (in words)” value in data set [8] is listed as “active against rotavirus infection”.
In data set [3], QNDGECHVIDDSHRGDVFTQ (not fully specified) [peptidic compound of SEQ ID NO: 1 (QNDGECHVIDDSHRGDVFTQ)] gave an IC50 (µM), inhibition of human rotavirus Wa infection of MA-104 cells of 1.72 µM and an IC50 (µg/ml), inhibition of human rotavirus Wa infection of MA-104 cells of 3.9 µg/mL. For the same molecule, the % of inhibition of rotavirus infection at 100 µg/ml (36.6 µM), one representative experiment (% of inhibition) in data set [9] was determined as 61.
